Assay results reported in publication PMC6155683, “Pharmacokinetics Studies of 12 Alkaloids in Rat Plasma after Oral Administration of Zuojin and Fan-Zuojin Formulas” (Molecules : A Journal of Synthetic Chemistry and Natural …, 2017).
Where two headings read alike, the source gives them in different places.

Experiments:
[1] = PK study of the 12 alkaloids in rat plasma after oral administration of ZJ and FZJ extract (LC–MS/MS); format: in vivo
Procedure: The time schedule included 15 time-points and six rats were sampled at each time-point. All the rats were orally administered with ZJ extract (suspended in water) at a dose of 3.38 g/kg body weight (dosages of the 12 alkaloids were shown in Table S4), equivalent to crude drug dose of 12 g/kg body weight. Blood samples were collected from the suborbital vein of the rats at 10, 20, 30, 60, 90, 120, 180, 240, 300, 330, 360, 480, 720, 1440, 2160 min after administration, and centrifuged immediately at 5000 rpm for 10 min. The plasma samples were stored at −20 °C until analysis.
Similarly, the time schedule of other rats included 15 time-points and six rats were orally administered with FZJ extract at a dose of 3.76 g/kg body weight (also equivalent to crude drug dose of 12 g/kg body weight, Table S4). Blood samples were collected and treated as mentioned above in the PK study of ZJ extract.
PK parameters of the 12 alkaloids including AUC0→t, AUC0→∞, mean retention time (MRT0→t, MRT0→∞), and elimination half-life (t1/2) were calculated with non-compartmental method by DAS 2.0 software (Mathematical Pharmacology Professional Committee of China, Shanghai, China). Maximum plasma drug concentration (Cmax) and time to reach the maximum plasma drug concentration (Tmax) were observed directly from the detected C–T data. The results were expressed as arithmetic mean ± standard deviation (SD).

[2] = Stability of analytes in rat plasma under storage conditions; format: physicochemical; conditions: n = 6; for Stability RE, 3 freeze-thaw cycles / Stability RE, 30 days at −20 °C: rat plasma; for Stability RE, processed samples' stability: room temperature 24 h
Procedure: The stabilities of analytes in plasma were assessed by analyzing the QC samples at three concentration levels under the following storage conditions: after three freeze (−20 °C)-thaw (room temperature) cycles; stored at −20 °C for 30 days, and comparing the results with those of freshly prepared QC samples. Stabilities of the processed samples at room temperature for 24 h were also assessed.

Caco-2 cell monolayer = conditions: cited from earlier work
P-gp = conditions: not told; cited from earlier work
[3] = cited from earlier work
[4] = jejunum vs ileum and colon; cited from earlier work
[5] = cited from earlier work; remark: listed apart in the source
[6] = cited from earlier work; remark: listed apart in the source

C[n+]1c2n(c(=O)c3ccccc31)CCc1c-2[nH]c2ccccc12 [dehydroevodiamine]
Csec (drug concentration of the secondary peak in C–T curve) ([1]; rat, in vivo, po): 117.29 ± 45.45 ng/mL
Tsec (time of the secondary peak in C–T curve) ([1]; rat, in vivo, po): 90 min
AUC(0-inf) ([1]; rat, in vivo, po, 3.38 g/kg): 537 ± 55 ng·h/mL
AUC(0-t) ([1]; rat, in vivo, po, 3.38 g/kg): 532 ± 57.8 ng·h/mL
Cmax ([1]; rat, in vivo, po, 3.38 g/kg): 155 ± 27.9 ng/mL
MRT inf ([1]; rat, in vivo, po, 3.38 g/kg): 4.71 h
MRT last ([1]; rat, in vivo, po, 3.38 g/kg): 4.34 h
Tmax ([1]; rat, in vivo, po, 3.38 g/kg): 4 h
half-life ([1]; rat, in vivo, po, 3.38 g/kg): 3.21 ± 2.27 h
AUC(0-inf) ([1]; rat, in vivo, po, 3.76 g/kg): 286 ± 24.1 ng·h/mL
AUC(0-t) ([1]; rat, in vivo, po, 3.76 g/kg): 275 ± 23.2 ng·h/mL
Cmax ([1]; rat, in vivo, po, 3.76 g/kg): 85.3 ± 13.4 ng/mL
MRT inf ([1]; rat, in vivo, po, 3.76 g/kg): 5.96 h
MRT last ([1]; rat, in vivo, po, 3.76 g/kg): 4.66 h
Tmax ([1]; rat, in vivo, po, 3.76 g/kg): 1.5 h
half-life ([1]; rat, in vivo, po, 3.76 g/kg): 5.03 ± 2.87 h
Stability RE, 3 freeze-thaw cycles ([2]; high QC concentration): 5.86%
Stability RE, 30 days at −20 °C ([2]; high QC concentration): 4.85%
Stability RE, 3 freeze-thaw cycles ([2]; low QC concentration): 4.36%
Stability RE, 30 days at −20 °C ([2]; low QC concentration): −6.34%
Stability RE, 3 freeze-thaw cycles ([2]; medium QC concentration): 14.45%
Stability RE, 30 days at −20 °C ([2]; medium QC concentration): −1.12%
Stability RE, processed samples' stability ([2]; high QC concentration): −1.09%
Stability RE, processed samples' stability ([2]; low QC concentration): −0.76%
Stability RE, processed samples' stability ([2]; medium QC concentration): 4.78%
Papp (Caco-2 cell monolayer): 12.6 ×10⁻⁶ cm/s

COc1ccc2cc3[n+](cc2c1OC)CCc1cc2c(cc1-3)OCO2 [berberine]
AUC(0-t) ([1]; 3.38 g/kg, rat plasma, oral ZJ extract, mean ± SD, n = 6, read-out: AUC0→t): 277 ± 50.1 ng·h/mL
AUC(0-inf) ([1]; 3.38 g/kg, rat plasma, oral ZJ extract, mean ± SD, n = 6, read-out: AUC0→∞): 300 ± 55.3 ng·h/mL
Cmax ([1]; 3.38 g/kg, rat plasma, oral ZJ extract, mean ± SD, n = 6, read-out: Cmax): 109 ± 48.3 ng/mL
MRT last ([1]; 3.38 g/kg, rat plasma, oral ZJ extract, mean ± SD, n = 6, read-out: MRT0→t (converted)): 6.46 h
MRT inf ([1]; 3.38 g/kg, rat plasma, oral ZJ extract, mean ± SD, n = 6, read-out: MRT0→∞ (converted)): 8.58 h
half-life ([1]; 3.38 g/kg, rat plasma, oral ZJ extract, mean ± SD, n = 6, read-out: t1/2): 6.3 ± 3.24 h
Tmax ([1]; 3.38 g/kg, rat plasma, oral ZJ extract, read-out: Tmax (converted)): 1.5 h
AUC(0-t) ([1]; 3.76 g/kg, rat plasma, oral FZJ extract, mean ± SD, n = 6, read-out: AUC0→t): 48.1 ± 9.6 ng·h/mL
AUC(0-inf) ([1]; 3.76 g/kg, rat plasma, oral FZJ extract, mean ± SD, n = 6, read-out: AUC0→∞): 50.2 ± 10.7 ng·h/mL
Cmax ([1]; 3.76 g/kg, rat plasma, oral FZJ extract, mean ± SD, n = 6, read-out: Cmax): 23.7 ± 7.42 ng/mL
MRT last ([1]; 3.76 g/kg, rat plasma, oral FZJ extract, mean ± SD, n = 6, read-out: MRT0→t (converted)): 4.07 h
MRT inf ([1]; 3.76 g/kg, rat plasma, oral FZJ extract, mean ± SD, n = 6, read-out: MRT0→∞ (converted)): 4.68 h
half-life ([1]; 3.76 g/kg, rat plasma, oral FZJ extract, mean ± SD, n = 6, read-out: t1/2): 2.22 ± 0.835 h
Tmax ([1]; 3.76 g/kg, rat plasma, oral FZJ extract, read-out: Tmax (converted)): 3 h
Tsec (time of the secondary peak in C–T curve) ([1]; rat plasma, oral FZJ extract): 30 min
Csec (drug concentration of the secondary peak in C–T curve) ([1]; rat plasma, oral FZJ extract, mean ± SD, n = 6): 11.64 ± 7.28 ng/mL
Tsec (time of the secondary peak in C–T curve) ([1]; rat plasma, oral ZJ extract): 300 min
Csec (drug concentration of the secondary peak in C–T curve) ([1]; rat plasma, oral ZJ extract, mean ± SD, n = 6): 44.68 ± 21.28 ng/mL
P-gp substrate (P-gp): P-gp substrates
Stability RE, 3 freeze-thaw cycles ([2]; high QC concentration): −14.86%
Stability RE, 30 days at −20 °C ([2]; high QC concentration): −14.65%
Stability RE, 3 freeze-thaw cycles ([2]; low QC concentration): 7.87%
Stability RE, 30 days at −20 °C ([2]; low QC concentration): −8.36%
Stability RE, 3 freeze-thaw cycles ([2]; medium QC concentration): −1.36%
Stability RE, 30 days at −20 °C ([2]; medium QC concentration): −13.68%
Stability RE, processed samples' stability ([2]; high QC concentration): −13.71%
Stability RE, processed samples' stability ([2]; low QC concentration): 9.52%
Stability RE, processed samples' stability ([2]; medium QC concentration): 4.57%
primary elimination route in vivo [3]: renal excretion
absorption rate constant (Ka) compared between intestinal sites [4]: greater than that at ileum and colon
absolute bioavailability [5]: less than 1%
berberine existed as prototype ([6]; 0–36 h after intragastric administration): at least 56%
berberine remained in the GI tract ([6]; at 36 h after intragastric administration): 24%
